In patent publication US20230247990A1, “Stable Botanical Antimicrobial Compositions” (The Trustees of Columbia University in the city of New York, priority 2020, published 2023):

Assay: Accelerated aging method, long term stability at 45° C.
Assay type: physicochemical
Settings: temperature higher than 40° C., including 45° C. of the accelerated aging method
Description: In certain embodiments, the 1 year period is achieved through simulating such conditions with the accelerated aging method. The accelerated aging method can be conducted by keeping the solutions at 45° C. for 8 weeks, which is equivalent to stability of 1 year under regular, room temperature conditions.
The accelerated aging method was conducted by keeping the solutions at 45° C. for 8 weeks, which is equivalent to stability of 1 year at regular, room temperature conditions.

- Solubility in solvents at elevated temperature: gradually precipitates
SMILES: C=CCCCCCCCCC(=O)O [Undecylenic acid]
